Experiment [1] relates to hyperplastic lesions, LCIS and DCIS of human mammary gland. Put plainly: Proof of principle clinical trial, biopsies before and after treatment (Ki67, TUNEL). Format: in vivo. From the text:
Background: Antiestrogens or aromatase inhibitors are used for breast cancer chemoprevention. These treatments cause unpleasant side effects including hot flashes and vaginal dryness. We have previously shown that IGF-I is required to permit estrogen and progesterone action in the mammary gland. […] Menopausal symptoms would not likely to occur with SOM230 since estrogen is not lowered. Material and Methods: We have approached this issue in several ways. 1) We developed a model of hyperplasia in hypophysectomized and oophorectomized female rats. Hyperplasia was induced by treatment with 600 mcg hGH and follicular phase concentrations of estradiol. Hyperplasia was assessed histologically in sections of mammary gland. 2) To assess translatability to humans we assessed cell proliferation and apoptosis in normal human breast from reduction mammoplasties and samples of usual hyperplasia. 3) We also determined availability of SST receptors in samples of atypical ductal hyperplasia and DCIS, and 4) We have begun to determine whether SOM230 will prevent hyperplasia in humans at risk for breast cancer as it does in rats.
A proof of principle clinical trial is underway to further confirm whether SOM230 inhibits cell proliferation and increases apoptosis in human mammary gland as it does in rats. Data is presently available on 11 enlisted subjects. All patients had atypical hyperplasia on core biopsy and were given 600 ug SOM230 twice daily by injection. Data is available on 8 patients who had forms of hyperplasia that increase the likelihood of developing breast cancer. […] The effect of SOM230 on apoptosis and cell proliferation in hyperplastic lesions in the 8 patients is graphed in FIG. 17. This was also true in 2 cases of LCIS, a pre-cancerous condition, and one case of ductal carcinoma in situ, a cancerous situation. Apoptosis and cell proliferation is graphed for the 2 lobular hyperplasia patients in FIG. 18. FIG. 19 provides a DCIS patient sample cell staining for TUNEL and Ki67 before and after SOM230 administration. DCIS is a very common type of noninvasive breast cancer in women. Thus, human beings respond to SOM230 by inhibiting IGF-I action in the mammary gland. Taken together with our data on relative effects of SOM230 and Tamoxifen our data provide evidence that SOM230 will be at least as effective in preventing or treating breast cancer as Tamoxifen.

A further experiment concerns the target SSTR-3 (Homo sapiens, UniProt P32745). The conditions noted are these: cited from earlier work.
For the next experiment, the system named is Factor VIII. Put plainly: Factor VIII immunostaining in mammary glands of normally developing rats. Format: in vivo, rat. The conditions noted are these: 28 day old rats treated from day 21; gland cells and mast cells. The text has this:
(§1) They were found in both gland cells and mast cells.

Another experiment relates to mammary development. The settings on record: rats; Ruan et al (2006); cited from earlier work.
The test system of experiment [2] is Ki67 positive cells in mammary gland. Put plainly: Cell proliferation by Ki67 immunostaining in mammary gland, hGH+E2 model. The conditions noted are these: for % Ki67 positive cells, Normal gland / % Ki67 positive cells, DH structure Mod + mild: 3 animals; for % Ki67 positive cells, Normal gland: hGH + E2 control 5.1 ± 0.1; for % Ki67 positive cells, DH structure Mod + mild: hGH + E2 control 22.5 ± 1.6 (P < 0.05); for cell proliferation / Ki67 staining (in words): hGH+E2 model versus hGH+E2 control. It counts as in vivo, rat. As for the experimental part: The histological sections were also analyzed for cell proliferation by Ki67 immunostaining and for apoptosis by TUNEL. Twenty five percent of cells in areas of florid hyperplasia were stained for Ki67. […] When the glands were normal and not hyperplastic, only 5.1% stained for Ki67. […] The immunostaining for Ki67 can be seen in FIG. 3.
We next determined the effects of the various treatment regimens on cell proliferation as assessed by Ki67 immunostaining. […] The percent Ki67 positive cells is depicted in TABLE 4 below.

Another experiment concerns VEGF. Put plainly: VEGF immunostaining in mammary glands of normally developing rats. Format: in vivo, rat. The conditions noted are these: 28 day old rats treated from day 21; gland cells and mast cells.
Description: as §1

The mark [3] stands for this setting: 8 hyperplasia patients, 600 ug twice daily by injection, biopsy before/after.
The mark [4] stands for this setting: lobular carcinoma in situ patients (2 cases), excisional versus core biopsy.

Entries after “also recorded” stand apart in the source; their conditions may differ. *1 amine or outer side, *2 acyl side, *3 side chain or, on linkers, in order; H or OH if unused. Where a SMILES comes first, the peptide text is derived from it. Side-chain parts run from the residue outwards. [ ]: non-standard residue; d: D form. The star is where a group is joined. Ethylenediamine = C(CN[*:2])N[*:1]; Hyp = O=C(O)[C@@H]1C[C@@H](O)CN1; Phg = N[C@H](C(=O)O)c1ccccc1; CO = O=C([*:1])[*:2]; Bn = c1ccc(C*)cc1

Chain of SSTR-3 (P32745 whole entry, species assumed): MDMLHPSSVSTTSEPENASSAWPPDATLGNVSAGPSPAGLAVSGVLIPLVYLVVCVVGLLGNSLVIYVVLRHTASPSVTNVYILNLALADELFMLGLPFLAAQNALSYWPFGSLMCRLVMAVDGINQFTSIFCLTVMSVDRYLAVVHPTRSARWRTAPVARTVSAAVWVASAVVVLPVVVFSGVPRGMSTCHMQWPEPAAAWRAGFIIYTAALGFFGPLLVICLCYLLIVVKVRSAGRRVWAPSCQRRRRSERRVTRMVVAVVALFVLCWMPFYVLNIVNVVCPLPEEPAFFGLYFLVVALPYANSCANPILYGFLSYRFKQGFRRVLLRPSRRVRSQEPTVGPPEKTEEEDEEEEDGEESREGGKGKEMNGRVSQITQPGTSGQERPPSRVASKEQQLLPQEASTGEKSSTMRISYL

Consider `NCCCC[C@@H]1NC(=O)[C@@H](Cc2c[nH]c3ccccc23)NC(=O)[C@H](c2ccccc2)NC(=O)[C@@H]2C[C@@H](OC(=O)NCCN)CN2C(=O)[C@H](Cc2ccccc2)NC(=O)[C@H](Cc2ccc(OCc3ccccc3)cc2)NC1=O` [SOM230] (cyclo([Hyp]([CO-Ethylenediamine])[Phg][dW]KY(Bn)F)), for which, in experiment [1] (setting [3]), the “apoptosis (TUNEL assay) in hyperplastic lesions” value is listed as “increase in apoptosis” and the “cell proliferation (Ki67 assay) in hyperplastic lesions” value is reported as “inhibition of cell proliferation”. Moreover, in experiment [1] (setting [4]), the “apoptosis (TUNEL) in LCIS” value is “increased apoptosis” and the “cell proliferation (Ki67) in LCIS” value is recorded as “decreased cell proliferation”. In addition, the “affinity for SSTR-3” value at SSTR-3 is “has affinity”. For the same compound, the “expression of Factor VIII (immunostaining)” value with Factor VIII is listed as “reduced expression”. Moreover, in the experiment with mammary development, the “IRS-1 phosphorylation in the mammary gland” value was “reduction in IRS-1 phosphorylation” and the mammary development entry is listed as “prevents mammary development”. Moreover, in experiment [2], the “% Ki67 positive cells, Normal gland” value was “no significant reduction”; the “% Ki67 positive cells, DH structure Mod + mild” value was found to be 14.2%; the “cell proliferation / Ki67 staining (in words)” value is recorded as “reduction in cell proliferation; also recorded: decrease in Ki67 staining”. Moreover, in experiment [2] (listed as SOM), the “% Ki67 positive cells, Normal gland” value is 4.3 ± 0.4% and the “% Ki67 positive cells, DH structure Mod + mild” value was found to be 14.2 ± 2.5%. Besides, in experiment [2] (listed as SOM 230), the “cell proliferation / Ki67 staining (in words)” value is “remarkable decrease in cell division”. For the same compound, the “expression of VEGF (immunostaining)” value in the experiment with VEGF is listed as “reduced expression”.

Source of the values: patent US20090325863A1, “Somatostatin analogs and IGF-I inhibition for breast cancer prevention” (priority 2008, published 2009).
